Results on four compounds are retold here after patent US20150080234A1, “Cell Patterning” (priority 2013, published 2015).

One experiment relates to GHOST cells. The experiment can be described thus: cell pattern maintenance / cell migration inhibition assay (media additives and hydrogels). Type of experiment: cell-based. On the procedure: One significant advantage afforded by WAP is the ability to an addressable link with stimuli with delayed signal development in cells, such as infection, proliferation, or migration. For implementation of the nano-neutralization assay, a technique for preventing pattern disruption was developed over time due to proliferation and migration of GHOST cells over the course of infection signal development. The effect of several media additives and hydrogels for the maintenance of patterns was tested.
Cell patterns were formed as described above. Arrays were imaged at 0, 24, and 48 hrs immediately after addition of 1 μM calcein AM live cell stain (Life Technologies) in PBS. Media additives were diluted directly into culture media at the indicated concentration. Cell proliferation (P) was calculated per block (4 wells per block) as the ratio of cells at time of imaging to the number of starting cells at time zero. Cell migration (M) was calculated as Nfull×P−Nwell, where Nfull is the number of cells per field of view, P is the proliferation rate, and Nwell is the number of cells per well.

The next experiment relates to cell motility. The following applies: cited from earlier work.
A further experiment has as its target CCR5 (Homo sapiens, UniProt P51681). The note with it: lowers the effective CCR5 concentration; cited from earlier work.
In a further experiment the test system is ACH2 cells. The experiment can be described thus: virus production by ACH2 cells in micro-wells detected by WAP. Type of experiment: cell-based. The note with it: ACH2 cells stimulated vs unstimulated, all loading densities, FIG. 6(b). On the procedure:
FIGS. 6(a)-(b) illustrate one embodiment of detection/analysis of latently infected T cells using WAP. That is, as shown, WAP can be applied to study functional characteristics, such as virus production, of cells loaded into micro-wells. ACH2 cells produce HIV virus when stimulated with the cytokine TNFα. […] These cells produce virus when stimulated with TNFα, which can be contained in the media. The target cell coated slide is incubated with the array, removed, then allowed to incubate while biological signal develops (e.g. GFP accumulation). […] The median percent infection is higher in the presence of TNFα for each ACH2 cell count. In addition to assaying viral production capability, functional characteristics of virus producing cells in the micro-wells, such as gene expression, surface marker expression, or secretion of biomolecules of interest could provide functional information about virally infected cells.

Chain of CCR5 (P51681 whole entry): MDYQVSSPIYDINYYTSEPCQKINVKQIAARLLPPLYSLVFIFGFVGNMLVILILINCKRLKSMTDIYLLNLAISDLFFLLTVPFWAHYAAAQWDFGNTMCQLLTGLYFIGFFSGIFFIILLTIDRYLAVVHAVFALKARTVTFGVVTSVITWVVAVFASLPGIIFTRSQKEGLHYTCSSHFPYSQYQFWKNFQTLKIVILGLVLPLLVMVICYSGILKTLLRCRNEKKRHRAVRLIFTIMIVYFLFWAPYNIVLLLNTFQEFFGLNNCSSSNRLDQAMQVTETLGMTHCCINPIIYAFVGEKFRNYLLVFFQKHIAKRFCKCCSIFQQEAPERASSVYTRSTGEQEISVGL

Consider `CS(=O)(=O)c1cccc(CNc2nc(Nc3ccc4c(c3)CCC(=O)N4)ncc2C(F)(F)F)c1` [PF-573228], for which the “individual pattern maintenance for the time required for signal development” value in the experiment with GHOST cells (10 μM) is “resulted in individual pattern maintenance”. Besides, in the experiment on GHOST cells (FIG. 15(b), 24 or 48 hours), the “proliferation of patterned cells (Nt/Nto per block)” value is “reduced proliferation of patterned cells”. The “migration of patterned cells (number of cells migrating out of patterns)” value in the experiment on GHOST cells (FIG. 15(c), p<0.0001 Mann-Whitney U test) is on record as “reduced migration of patterned cells”. In addition, in the experiment on GHOST cells (added to media, 0 hr vs 24 hrs post patterning, FIG. 9(f)), the “loss of cell patterns” value is reported as “prevents loss of cell patterns”. Besides, the “effect on cell motility and adhesion” value in the experiment with cell motility is listed as “inhibit cell motility but not adhesion”.

With `Cc1ccc(-c2ccc3c(c2)C=C(C(=O)Nc2ccc(C[N+](C)(C)C4CCOCC4)cc2)CCC3)cc1.[Cl-]` [TAK779], on CCR5, the “effect on HIV-1 entry” value was “slows HIV-1 entry”.

Consider `C[C@@H](N)[C@H]1CC[C@H](C(=O)Nc2ccncc2)CC1` [Y-27632], for which the “effect on cell motility and adhesion” value in the experiment with cell motility was “inhibit cell motility but not adhesion”.

Turning to TNFα, in the experiment on ACH2 cells, the “median percent infection of patterned cells” value is listed as “greater median percent infection”.
